Test results taken from ChEMBL document CHEMBL1649561, “H-NS modulates multidrug resistance of Salmonella enterica serovar Typhimurium by repressing multidrug efflux genes acrEF” (2009).
≈ marks a conversion by molar mass, not a printed value.

How the values were obtained:
Type in all cases: functional
[1] = tested on: Salmonella enterica; experiment: Antibacterial activity against Salmonella enterica ATCC 14028 by CLSI method
[2] = tested on: Salmonella enterica; experiment: Antibacterial activity against acrEF-deficient Salmonella enterica NKS176 by CLSI method
[3] = tested on: Salmonella enterica; experiment: Antibacterial activity against acrB-deficient Salmonella enterica NKS416 harboring acrEF, hns gene by CLSI method
[4] = tested on: Salmonella enterica; experiment: Antibacterial activity against tolC-deficient Salmonella enterica NKS174 by CLSI method
[5] = tested on: Salmonella enterica; experiment: Antibacterial activity against acrB-deficient Salmonella enterica NKS422 harboring acrEF gene by CLSI method
[6] = tested on: Salmonella enterica; experiment: Antibacterial activity against acrB-deficient Salmonella enterica NKS291 harboring hns gene by CLSI method
[7] = tested on: Salmonella enterica; experiment: Antibacterial activity against tolC-deficient Salmonella enterica NKS419 harboring hns gene by CLSI method
[8] = tested on: Salmonella enterica; experiment: Antibacterial activity against acrB-deficient Salmonella enterica NKS175 by CLSI method

Compound: Cn1nnnc1SCC1=C(C(=O)O)N2C(=O)[C@@H](NC(=O)[C@H](O)c3ccccc3)[C@H]2SC1 [CEFAMANDOLE]
- MIC [1]: 1 µg/mL (≈ 2.16 µM)
- MIC [2]: 0.5 µg/mL (≈ 1.08 µM)
- MIC [3]: 0.063 µg/mL (≈ 0.136 µM)
- MIC [4]: 0.063 µg/mL (≈ 0.136 µM)
- MIC [5]: 0.063 µg/mL (≈ 0.136 µM)
- MIC [6]: 0.25 µg/mL (≈ 0.541 µM)
- MIC [7]: 0.063 µg/mL (≈ 0.136 µM)
- MIC [8]: 0.063 µg/mL (≈ 0.136 µM)

Compound: Cc1onc(-c2ccccc2Cl)c1C(=O)N[C@@H]1C(=O)N2[C@@H]1SC(C)(C)[C@@H]2C(=O)O [CLOXACILLIN]
- MIC [1]: 512 µg/mL (≈ 1170 µM)
- MIC [2]: 512 µg/mL (≈ 1170 µM)
- MIC [3]: 4 µg/mL (≈ 9.18 µM)
- MIC [4]: 0.5 µg/mL (≈ 1.15 µM)
- MIC [5]: 4 µg/mL (≈ 9.18 µM)
- MIC [6]: 128 µg/mL (≈ 294 µM)
- MIC [7]: 0.5 µg/mL (≈ 1.15 µM)
- MIC [8]: 4 µg/mL (≈ 9.18 µM)

Compound: CN(C)c1ccc2nc3ccc(N(C)C)cc3[s+]c2c1.[Cl-] [METHYLENE BLUE ANHYDROUS]
- MIC [1]: > 512 µg/mL
- MIC [2]: > 512 µg/mL
- MIC [3]: 16 µg/mL
- MIC [4]: 16 µg/mL
- MIC [5]: 16 µg/mL
- MIC [6]: 512 µg/mL
- MIC [7]: 16 µg/mL
- MIC [8]: 16 µg/mL

Compound: CCOc1ccc2ccccc2c1C(=O)N[C@@H]1C(=O)N2[C@@H]1SC(C)(C)[C@@H]2C(=O)O [NAFCILLIN]
- MIC [1]: > 512 µg/mL
- MIC [2]: > 512 µg/mL
- MIC [3]: 4 µg/mL (≈ 9.65 µM)
- MIC [4]: 1 µg/mL (≈ 2.41 µM)
- MIC [5]: 4 µg/mL (≈ 9.65 µM)
- MIC [6]: 64 µg/mL (≈ 154 µM)
- MIC [7]: 1 µg/mL (≈ 2.41 µM)
- MIC [8]: 8 µg/mL (≈ 19.3 µM)

Compound: Cc1onc(-c2ccccc2)c1C(=O)N[C@@H]1C(=O)N2[C@@H]1SC(C)(C)[C@@H]2C(=O)O [OXACILLIN]
- MIC [1]: 512 µg/mL (≈ 1280 µM)
- MIC [2]: 512 µg/mL (≈ 1280 µM)
- MIC [3]: 1 µg/mL (≈ 2.49 µM)
- MIC [4]: 0.5 µg/mL (≈ 1.25 µM)
- MIC [5]: 1 µg/mL (≈ 2.49 µM)
- MIC [6]: 16 µg/mL (≈ 39.9 µM)
- MIC [7]: 0.5 µg/mL (≈ 1.25 µM)
- MIC [8]: 2 µg/mL (≈ 4.98 µM)

Compound: CC/N=c1\cc2oc3cc(NCC)c(C)cc3c(-c3ccccc3C(=O)OCC)c-2cc1C.Cl [RHODAMINE 6G HYDROCHLORIDE]
- MIC [1]: > 512 µg/mL
- MIC [2]: > 512 µg/mL
- MIC [3]: 8 µg/mL
- MIC [4]: 8 µg/mL
- MIC [5]: 8 µg/mL
- MIC [6]: 32 µg/mL
- MIC [7]: 8 µg/mL
- MIC [8]: 8 µg/mL
